Reference: patent US20220125882A1, “METHODS AND COMPOSITIONS FOR TREATMENT OF CANCER” (Enzychem Lifesciences Corporation, priority 2019, published 2022)
“And” between values parts separate entries of the source, which are not always exact repeats. Identical values can stand only once. “Also recorded” adds a separate entry of the source.

Legend:
4T1 cell line = test: 4T1 tumor-bearing mouse model: tumor size and weight on Day 8; assay type: in vivo, BALB/c mice; settings: for % weight Increase: % increase (+) or decrease (−) of tumor weight over body weight compared to control; for Tumor Weight Increase: change of average tumor weight compared to control; for Tumor Weight Average / % weight Average: group average; for Tumor Weight No. 1 / % weight No. 1: individual mouse No. 1; for Tumor Weight No. 1: 4T1 tumor-bearing BALB/c mice; for Tumor Weight No. 2 / % weight No. 2: individual mouse No. 2; for Tumor Weight No. 3 / % weight No. 3: individual mouse No. 3; for Tumor Weight No. 4 / % weight No. 4: individual mouse No. 4; for Tumor Weight No. 5 / % weight No. 5: individual mouse No. 5; for % weight Average / % weight No. 1 / % weight No. 2 / % weight No. 3 / % weight No. 4 / % weight No. 5: tumor weight over body weight
Procedure: On Day 2 and Day 3, the mice were administered 10 mg/kg of gemcitabine twice. On Day 4, 3 μg/mouse of PEG-G-CSF (Pegfilgrastim) was administrated via subcutaneous injection to the mice once. On every day of the study, 50 mg/kg of EC-18 diluted with PBS was administrated orally to the mice. A total of 24 tumor-bearing mice were classified into 5 groups consisting of control group (4 mice, Control), G-CSF administration group (5 mice, PEG-G-CSF), gemcitabine administration group (5 mice, Gemcitabine), G-CSF and gemcitabine co-administration group (5 mice, Gem+PEG), and EC-18 co-administration group (5 mice, Gem+PEG+EC-18), as summarized in Table 1 and FIG. 1A.
On Day 8, all mice were sacrificed and their tumors removed. The size and weight of the tumors were measured.

Vimentin = test: PCR of EMT marker expression in MDA-MB-231: Vimentin; assay type: cell-based; settings: for Vimentin PCR band intensity (relative intensity): MDA-MB-231, Neutrophil co-culture, relative to None = 1, Samples 1-3; for expression level of Vimentin: neutrophil and G-CSF co-stimulation group, with or without PLAG
Procedure: (§1) MDA-MB-231 and HL60 cells were obtained from the American Type Culture Collection (ATCC, Rockville, Md., USA). MDA-MB-231 cells were grown in DMEM medium (WELGENE, Seoul, Korea) containing 10% fetal bovine serum (HyClone, Waltham, Mass., USA), 1% antibiotics (100 mg/l streptomycin, 100 U/ml penicillin), and 0.4% 2-Mercaptoethanol (Sigma Aldrich, St. Louis, Mo., USA). HL60 cells were grown in DMEM medium containing 10% fetal bovine serum and 1% antibiotics (100 mg/l streptomycin, 100 U/ml penicillin). Cells were grown at 37° C. in a 5% CO2 atmosphere. To differentiate HL60 cells into neutrophil-like cells, cells were grown in medium with […] (Sigma Aldrich) for 5 days.
(§2) Total RNA was extracted using RiboEx (GeneAll biotechnology, Seoul, Korea) according to the manufacturer's instructions, and cDNA was generated using ReverseAids cDNA synthesis kit (Thermo Scientific, Waltham, Mass., USA) according to the manufacturer's instructions. PCR was performed with the following temperature profile: a pre-denaturation step of 10 min at 95° C., followed by 35 cycles of 95° C. for 30 sec, annealing temperature for 30 sec and 72° C. for 30 sec and a final exposure to 72° C. for 10 min. Specific primer sequence for amplification was Table 5.

SMAD2/3 = test: Confocal immunofluorescence of Smad nucleus translocation in MDA-MB-231; assay type: cell-based; settings: TAN and G-CSF co-stimulation
Procedure: as §1
MDA-MB-231 cells were seeded in 12 well plate with cover glass, and incubated to 60% confluence at well. After the incubation, treated PLAG and neutrophil and G-CSF co-stimulation for indicate time. After treatment the indicated time at 37° C. in a 5% CO2 atmosphere, the cells were fixed with 3.7% formaldehyde for 20 min and permeabilized with 0.2% Triton X-100 for 20 min for staining. Cells were washed with PBST twice and reacted with specific antibody (SMAD2/3) for over-night at 4° C. Cells were washed with PBST twice and reacted secondary antibody. For nucleus detection, it stained with 1% Hoechst33342 for 20 min. Fluorescence was detected by confocal (Carl Zeiss, Thornwood, N.Y., USA).

[1] = test system: MDA-MB-231 breast cancer cells; test: Transwell invasion assay (MTT readout); assay type: cell-based; settings: for transwell invasion of the cancer cells: G-CSF and neutrophil co-stimulation group, with or without PLAG; for Invasive cell count (MTT assay, % transform): MDA-MB-231, Samples 1-3
Procedure: as §1
Quantitative macrophage chemoattraction assays were performed using a modified Boyden chamber (SPL lifescience, Seoul, Korea) with 8.0-μm pore polycarbonate membrane inserts with matrigel-coated in 24-well plates. The lower chamber was filled with apoptotic neutrophils for chemoattraction. The MDA-MB-231 cells (5×10^4 cells/ml) in serum-free medium were added into the upper chamber and treated with PLAG. The cells were allowed to chemoattraction (Neutrophil co-culture supernatant) for indicate times at 37° C. in a 5% CO2 atmosphere. The non-chemoattracted cells were removed from the upper surface of the membrane by scraping with a cotton swab, and the chemoattracted cells were calculate by MTT assay.

IFN-γ = IFN-γ ELISA of cell supernatants; assay type: cell-based; settings: for IFN-γ ELISA (450 nm OD): Samples 1-3; for secretion of IFN-γ: TAN environment, PLAG treatment, or G-CSF co-stimulation vs neutrophil only group
Procedure: as §1
(§3) The levels of cytokine secretion in the cell supernatants or plasma were analyzed using an enzyme-linked immunosorbent assay (ELISA) specifically for cytokines from BD Bioscience according to the manufacturer's protocol. The absorbance was measured at 450 nm using an EMax Endpoint ELISA microplate reader (Molecular Devices Corporation, Sunnyvale, Calif., USA).

TGF-β = TGF-β ELISA of cell supernatants; assay type: cell-based; settings: for TGF-β ELISA (450 nm OD): Samples 1-3; for secretion level of TGF-β: TAN and G-CSF costimulation environment, with or without PLAG
Procedure: as §1, §3

[2] = test system: MDA-MB-231 breast cancer cells; test: Wound healing assay (mobility), TAN / G-CSF co-culture; assay type: cell-based; settings: for mobility of the cancer cells: G-CSF and neutrophil co-stimulation group, with or without PLAG
Procedure: as §1
MDA-MB-231 were seeded in 12 well plate with cover glass, and incubated to 100% confluence at well. After the incubation, make the wound cell monolayer on center of well. A treated PLAG and neutrophil and G-CSF co-stimulation for indicate time. After treatment the indicated time and dose at 37° C. in a 5% CO2 atmosphere, the cells were fixed with 3.7% formaldehyde for 20 min and permeabilized with 0.2% Triton X-100 for 20 min and stained with 0.1% Phalloidin-FITC for 40 min. Fluorescence was detected by confocal (Carl Zeiss, Thornwood, N.Y., USA).

SMAD2/3-SMAD4 complex = test: Immunoprecipitation of Smad complex in MDA-MB-231; assay type: cell-based; settings: TAN and G-CSF co-stimulation
Procedure: as §1
(§4) MDA-MB-231 cells treated with PLAG and stimulated to induce neutrophil and G-CSF co-stimulation for various times at 37° C. in a 5% CO2 atmosphere were lysed using ice-cold IP lysis buffer (25 mM Tris-HCl pH 7.4, 150 mM NaCl, 1% NP-40, 1 mM EDTA, 5% glycerol). Extracted proteins were incubated with Surebeads Protein G specific antibody bound magnetic beads (Bio-Rad, Hercules, Calif., USA). Beads were washed with PBS with Tween 20 (PBST) and target proteins eluted in 1× sample buffer and analyzed by Western blotting.

Smad proteins = test: Smad protein activity by Western blotting in MDA-MB-231; assay type: cell-based; settings: TAN and G-CSF co-stimulation
Procedure: as §1, §4

Snail = test: PCR of EMT marker expression in MDA-MB-231: Snail; assay type: cell-based; settings: for Snail PCR band intensity (relative intensity): MDA-MB-231, Neutrophil co-culture, relative to None = 1, Samples 1-3; for expression level of SNAIL: neutrophil and G-CSF co-stimulation group, with or without PLAG
Procedure: as §1, §2

N-cadherin = test: PCR of EMT marker expression in MDA-MB-231: N-cadherin; assay type: cell-based; settings: for N-cadherin PCR band intensity (relative intensity): MDA-MB-231, Neutrophil co-culture, relative to None = 1, Samples 1-3; for expression level of NCAD: neutrophil and G-CSF co-stimulation group, with or without PLAG
Procedure: as §1, §2

Molecule	% weight Increase (4T1 cell line)	Tumor Weight Increase (4T1 cell line; Day 8)	Tumor Weight Average (4T1 cell line; Day 8) [×0.01 g]	Tumor Weight No. 1 (4T1 cell line; Day 8) [×0.01 g]	Tumor Weight No. 2 (4T1 cell line; Day 8) [×0.01 g]	Tumor Weight No. 3 (4T1 cell line; Day 8) [×0.01 g]	Tumor Weight No. 4 (4T1 cell line; Day 8) [×0.01 g]	Tumor Weight No. 5 (4T1 cell line; Day 8) [×0.01 g]	% weight Average (4T1 cell line; Day 8) [%]	% weight No. 1 (4T1 cell line; Day 8) [%]	% weight No. 2 (4T1 cell line; Day 8) [%]	% weight No. 3 (4T1 cell line; Day 8) [%]	% weight No. 4 (4T1 cell line; Day 8) [%]	% weight No. 5 (4T1 cell line; Day 8) [%]	Vimentin PCR band intensity (relative intensity) (Vimentin)	expression level of Vimentin (Vimentin)	transwell invasion of the cancer cells [1]	Invasive cell count (MTT assay, % transform) ([1]; Neutrophil co-culture)	IFN-γ ELISA (450 nm OD) (IFN-γ; Neutrophil co-culture)	secretion of IFN-γ (IFN-γ)	other results
Nc1ccn([C@@H]2O[C@H](CO)[C@@H](O)C2(F)F)c(=O)n1 [Gemcitabine, gemcitabine, reference compound]	−22.6%	−25.0%	24 ± 12	38	9	32	27	14	0.97 ± 0.51	1.55	0.36	1.32	1.08	0.54	–	–	–	–	–	–	tumor weight decreased compared to control (4T1 cell line; Day 8): about 25%
CCCCC/C=C\C/C=C\CCCCCCCC(=O)OC(COC(C)=O)COC(=O)CCCCCCCCCCCCCCC (stereo not shown) [PLAG, 1-palmitoyl-2-linoleoyl-3-acetylglycerol]	–	–	–	–	–	–	–	–	–	–	–	–	–	–	0.501 and 0.512 and 0.504	expression was decreased	inhibited the cancer cell abnormal-metastasis	212.500% and 235.417% and 216.667%	0.181 OD and 0.158 OD and 0.164 OD	significantly increased	nucleus translocation of SMAD2/3 and SMAD4 (SMAD2/3): decreased; Invasive cell count (MTT assay, % transform) ([1]; without neutrophil): 89.583% and 104.167% and 102.083%; transwell invasion of MDA-MB-231 cells ([1]; neutrophil-stimulated culture sup.): invasion of cancer cells is decreased; IFN-γ ELISA (450 nm OD) (IFN-γ; without neutrophil): 0.144 OD and 0.149 OD and 0.156 OD; TGF-β ELISA (450 nm OD) (TGF-β; Neutrophil co-culture): 0.484 OD and 0.476 OD and 0.474 OD; secretion level of TGF-β (TGF-β): did not significantly decrease; also recorded: did not change; TGF-β ELISA (450 nm OD) (TGF-β; without neutrophil): 0.248 OD and 0.287 OD and 0.208 OD; mobility of the cancer cells [2]: inhibited the cancer cell abnormal-metastasis; mobility of MDA-MB-231 cells ([2]; neutrophil-stimulated): mobility decreased; formation of the SMAD2/3-SMAD4 complex (SMAD2/3-SMAD4 complex): decreases; SMAD activity (TGF-β signal pathway) (Smad proteins): decreased; Snail PCR band intensity (relative intensity) (Snail): 0.531 and 0.749 and 0.527; expression level of SNAIL (Snail): expression was decreased; N-cadherin PCR band intensity (relative intensity) (N-cadherin): 0.723 and 0.747 and 0.732; expression level of NCAD (N-cadherin): expression was decreased
G-CSF: granulocyte colony-stimulating factor used with neutrophils to co-stimulate MDA-MB-231 cells; form not specified (protein, UniProt P09919 31-207, looked up) Granulocyte …: TPLGPASSLPQSFLLKCLEQVRKIQGDGAALQEKLVSECATYKLCHPEELVLLGHSLGIPWAPLSSCPSQALQLAGCLSQLHSGLFLYQGLLQALEGISPELGPTLDTLQLDVADFATTIWQQMEELGMAPALQPTQGAMPAFASAFQRRAGGVLVASHLQSFLEVSYRVLRHLAQP	–	–	–	–	–	–	–	–	–	–	–	–	–	–	1.832 and 1.854 and 1.867	increased	further increased	366.667% and 352.083% and 383.333%	0.139 OD and 0.102 OD and 0.094 OD	significantly lower	TGF-β ELISA (450 nm OD) (TGF-β; Neutrophil co-culture): 0.439 OD and 0.446 OD and 0.414 OD; secretion level of TGF-β (TGF-β): increased; mobility of the cancer cells [2]: further increased; Snail PCR band intensity (relative intensity) (Snail): 2.4 and 2.781 and 1.635; expression level of SNAIL (Snail): increased; N-cadherin PCR band intensity (relative intensity) (N-cadherin): 4.517 and 4.511 and 5.214; expression level of NCAD (N-cadherin): increased
PEG-G-CSF: pegfilgrastim, a PEGylated form of filgrastim (recombinant human G-CSF) (protein, UniProt P09919 31-207, looked up, PEG, N-terminal methionine) Granulocyte …: TPLGPASSLPQSFLLKCLEQVRKIQGDGAALQEKLVSECATYKLCHPEELVLLGHSLGIPWAPLSSCPSQALQLAGCLSQLHSGLFLYQGLLQALEGISPELGPTLDTLQLDVADFATTIWQQMEELGMAPALQPTQGAMPAFASAFQRRAGGVLVASHLQSFLEVSYRVLRHLAQP	+22.7%	+19.4%	38 ± 11	47	30	53	30	31	1.54 ± 0.52	2.02	1.12	2.20	1.20	1.17	–	–	–	–	–	–	tumor weight increased compared to control (4T1 cell line; Day 8): about 19.4%
